Measured values taken from patent publication US10669261B2, “Heteroarylhydroxypyrimidinones as agonists of the APJ receptor” (BRISTOL-MYERS SQUIBB COMPANY, priority 2015, dated 2020).

molecular target: T1, human APJ receptor (Homo sapiens, UniProt P35414); experiment: Intracellular cAMP accumulation assay (APJ hcAMP, HTRF); type: cell-based; conditions: HEK293 cells stably expressing human APJ receptor; inhibition of forskolin-mediated cAMP production; stated at end of example; read-out: Human APJ cAMP Potency Range
T1 construct: expressed in transfected cells
T1 sequence (P35414 1-380): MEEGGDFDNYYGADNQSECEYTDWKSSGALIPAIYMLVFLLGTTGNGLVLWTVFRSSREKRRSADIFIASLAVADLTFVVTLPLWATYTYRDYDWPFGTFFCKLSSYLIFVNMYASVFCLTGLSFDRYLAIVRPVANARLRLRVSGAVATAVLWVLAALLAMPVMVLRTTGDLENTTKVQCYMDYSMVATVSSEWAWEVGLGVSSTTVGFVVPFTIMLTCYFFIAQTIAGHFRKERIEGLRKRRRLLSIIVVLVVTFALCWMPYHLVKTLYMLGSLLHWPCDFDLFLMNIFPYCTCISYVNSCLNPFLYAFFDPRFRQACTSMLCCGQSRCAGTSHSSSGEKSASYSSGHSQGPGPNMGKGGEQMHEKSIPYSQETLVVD
Procedure, shortened: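 Inhibition of forskolin (2 μM)-driven cAMP, with […], measured by HTRF after 30 min room-temperature compound exposure of stably transfected HEK293 cells. cAMP read from a standard curve; variable-slope fit gives EC50, and maximal inhibition is normalised to (Pyr1)apelin-13 as 100%.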

| EC50 [nM] | Compound |
| --- | --- |
| 0.01 to 10 | CCCCc1nc(=O)c(-c2nnc(Cc3noc4ccccc34)o2)c(O)n1-c1c(OC)cccc1OC [Example 1, 5-(5-(benzo[d]isoxazol-3-ylmethyl)-1,3,4-oxadiazol-2-yl)-2-butyl-1-(2,6-dimethoxyphenyl)-6-hydroxypyrimidin-4(1H)-one] |
| 0.01 to 10 | CCCCc1nc(O)c(-c2cnn(Cc3ccccc3)c2)c(=O)n1-c1c(OC)cccc1OC [Example 31, 5-(1-benzyl-1H-pyrazol-4-yl)-2-butyl-3-(2,6-dimethoxyphenyl)-6-hydroxypyrimidin-4(3H)-one] |
| 0.01 to 10 | [2H]C([2H])([2H])Oc1cccc(OC([2H])([2H])[2H])c1-n1c(CCCC)nc(=O)c(-c2nnc(Cc3noc4ccccc34)o2)c1O [Example 48, 5-(5-(Benzo[d]isoxazol-3-ylmethyl)-1,3,4-oxadiazol-2-yl)-2-butyl-1-(2,6-di[^2H3]methoxyphenyl)-6-hydroxypyrimidin-4(1H)-one] |
| 0.01 to 10 | CCOCc1nc(=O)c(-c2nnc(Cc3noc4ccccc34)o2)c(O)n1-c1c(OC)cccc1OC [Example 33, 5-(5-(benzo[d]isoxazol-3-ylmethyl)-1,3,4-oxadiazol-2-yl)-1-(2,6-dimethoxyphenyl)-6-hydroxy-2-(ethoxymethyl)pyrimidin-4(1H)-one] |

same assay, conditions: Table 1; HEK293 cells stably expressing human APJ receptor; read-out: hAPJ cAMP EC50 Potency range

| EC50 [nM] | Compound |
| --- | --- |
| 0.01 to 10 | CCCCc1nc(O)c(-c2cnn(Cc3ccc(Cl)cc3)c2)c(=O)n1-c1c(OC)cccc1OC [Example 32, 2-butyl-5-{1-[(4-chlorophenyl)methyl]-1H-pyrazol-4-yl}-3-(2,6-dimethoxyphenyl)-6-hydroxy-3,4-dihydropyrimidin-4-one] |
| 0.01 to 10 | COc1cccc(OC)c1-n1c(CCC2CC2)nc(=O)c(-c2nnc(CNC(=O)c3ccccn3)o2)c1O [Example 58, N-({5-[2-(2-cyclopropylethyl)-1-(2,6-dimethoxyphenyl)-6-hydroxy-4-oxo-1,4-dihydropyrimidin-5-yl]-1,3,4-oxadiazol-2-yl}methyl)pyridine-2-carboxamide] |
| 0.01 to 10 | COc1cccc(OC)c1-n1c(CCC2CC2)nc(=O)c(-c2nnc(Cc3ccc(F)cn3)o2)c1O [Example 61, 2-(2-cyclopropylethyl)-1-(2,6-dimethoxyphenyl)-5-{5-[(5-fluoropyridin-2-yl)methyl]-1,3,4-oxadiazol-2-yl}-6-hydroxy-1,4-dihydropyrimidin-4-one] |
| 0.01 to 10 | COc1cccc(OC)c1-n1c(CCCC(F)(F)F)nc(=O)c(-c2nnc(Cc3noc4ccccc34)o2)c1O [Example 12, 5-[5-(1,2-benzoxazol-3-ylmethyl)-1,3,4-oxadiazol-2-yl]-1-(2,6-dimethoxyphenyl)-6-hydroxy-2-(4,4,4-trifluorobutyl)-1,4-dihydropyrimidin-4-one] |
| 0.01 to 10 | CCCCc1nc(=O)c(-c2nnc(Cc3ccc(Cl)cc3)o2)c(O)n1-c1c(OC)cccc1OC [Example 2, 2-butyl-5-{5-[(4-chlorophenyl)methyl]-1,3,4-oxadiazol-2-yl}-1-(2,6-dimethoxyphenyl)-6-hydroxy-1,4-dihydropyrimidin-4-one] |
| 0.01 to 10 | COc1cccc(OC)c1-n1c(C2CCC2)nc(=O)c(-c2nnc(Cc3ccc(Cl)cn3)o2)c1O [Example 70, 5-{5-[(5-chloropyridin-2-yl)methyl]-1,3,4-oxadiazol-2-yl}-2-cyclobutyl-1-(2,6-dimethoxyphenyl)-6-hydroxy-1,4-dihydropyrimidin-4-one] |
| 0.01 to 10 | CCCCc1nc(=O)c(-c2nnc(Cc3noc4ccccc34)o2)c(O)n1-c1c(CC)cccc1CC [Example 4, 5-[5-(1,2-benzoxazol-3-ylmethyl)-1,3,4-oxadiazol-2-yl]-2-butyl-1-(2,6-diethylphenyl)-6-hydroxy-1,4-dihydropyrimidin-4-one] |
| 0.01 to 10 | C=CCCc1nc(=O)c(-c2nnc(Cc3nc(-c4ccccn4)no3)o2)c(O)n1-c1c(OC)cccc1OC [Example 11, 2-(but-3-en-1-yl)-1-(2,6-dimethoxyphenyl)-6-hydroxy-5-(5-{[3-(pyridin-2-yl)-1,2,4-oxadiazol-5-yl]methyl}-1,3,4-oxadiazol-2-yl)-1,4-dihydropyrimidin-4-one] |
| 0.01 to 10 | COc1cccc(OC)c1-n1c(CCC2CC2)nc(=O)c(-c2nnc(CNC(=O)c3cccc(Cl)c3)o2)c1O [Example 55, 3-chloro-N-({5-[2-(2-cyclopropylethyl)-1-(2,6-dimethoxyphenyl)-6-hydroxy-4-oxo-1,4-dihydropyrimidin-5-yl]-1,3,4-oxadiazol-2-yl}methyl)benzamide] |
| 0.01 to 10 | COc1cccc(OC)c1-n1c(C2CCC2)nc(=O)c(-c2nnc(Cc3ncc(Cl)cc3F)o2)c1O [Example 71, 5-{5-[(5-chloro-3-fluoropyridin-2-yl)methyl]-1,3,4-oxadiazol-2-yl}-2-cyclobutyl-1-(2,6-dimethoxyphenyl)-6-hydroxy-1,4-dihydropyrimidin-4-one] |
| 0.01 to 10 | CCCCc1nc(=O)c(-c2nnc(Cc3ccc(Cl)cc3)o2)c(O)n1-c1c(OCC)cccc1OCC [Example 26, 2-butyl-5-{5-[(4-chlorophenyl)methyl]-1,3,4-oxadiazol-2-yl}-1-(2,6-diethoxyphenyl)-6-hydroxy-1,4-dihydropyrimidin-4-one] |
| 0.01 to 10 | COc1cccc(OC)c1-n1c(CCC2CC2)nc(=O)c(-c2nnc(Cc3csc(C)n3)o2)c1O [Example 44, 2-(2-cyclopropylethyl)-1-(2,6-dimethoxyphenyl)-6-hydroxy-5-{5-[(2-methyl-1,3-thiazol-4-yl)methyl]-1,3,4-oxadiazol-2-yl}-1,4-dihydropyrimidin-4-one] |

same assay, conditions: Table 2; HEK293 cells stably expressing human APJ receptor; read-out: hAPJ cAMP EC50 Potency range

| EC50 [nM] | Compound |
| --- | --- |
| 10 to 100 | CCCCc1nc(O)c(-c2nnc(Cc3noc4ccccc34)o2)c(=O)n1[C@@H](C)c1cccc(C#N)c1 [Example 103, 3-[(1S)-1-(5-{5-[(1,2-benzoxazol-3-yl)methyl]-1,3,4-oxadiazol-2-yl}-2-butyl-4-hydroxy-6-oxo-1,6-dihydropyrimidin-1-yl)ethyl]benzonitrile] |
| 10 to 100 | CCCCc1nc(O)c(-c2nnc(Cc3csc(C)n3)o2)c(=O)n1C(c1ccccc1)C(C)C (stereo not shown) [Example 112, 2-butyl-6-hydroxy-5-{5-[(2-methyl-1,3-thiazol-4-yl)methyl]-1,3,4-oxadiazol-2-yl}-3-(2-methyl-1-phenylpropyl)-3,4-dihydropyrimidin-4-one] |
| 10 to 100 | CCCCc1nc(O)c(-c2nnc(Cc3ccc(Cl)cc3)o2)c(=O)n1[C@@H](CC)c1ccccc1 [Example 84, 2-butyl-5-{5-[(4-chlorophenyl)methyl]-1,3,4-oxadiazol-2-yl}-6-hydroxy-3-[(1S)-1-phenylpropyl]-3,4-dihydropyrimidin-4-one] |
| 10 to 100 | CCCCc1nc(O)c(-c2nnc(Cc3noc4ccccc34)o2)c(=O)n1[C@@H](C)c1cccc(OC)c1 [Example 114, 5-{5-[(1,2-benzoxazol-3-yl)methyl]-1,3,4-oxadiazol-2-yl}-2-butyl-6-hydroxy-3-[(1S)-1-(3-methoxyphenyl)ethyl]-3,4-dihydropyrimidin-4-one] |
| 100 to 300 | CCCCc1nc(O)c(-c2nnc(Cc3csc(C)n3)o2)c(=O)n1C(C)c1cccnc1 (racemic) [Example 124, 2-butyl-6-hydroxy-5-{5-[(2-methyl-1,3-thiazol-4-yl)methyl]-1,3,4-oxadiazol-2-yl}-3-[1-(pyridin-3-yl)ethyl]-3,4-dihydropyrimidin-4-one] |
| 100 to 300 | CCCCc1nc(O)c(-c2nnc(Cc3noc4ccccc34)o2)c(=O)n1[C@@H]1CCc2ccccc21 [Example 117, 5-{5-[(1,2-benzoxazol-3-yl)methyl]-1,3,4-oxadiazol-2-yl}-2-butyl-3-[(1R)-2,3-dihydro-1H-inden-1-yl]-6-hydroxy-3,4-dihydropyrimidin-4-one] |
| 0.01 to 10 | CCCCc1nc(O)c(-c2nnc(Cc3noc4ccccc34)o2)c(=O)n1[C@H](C)c1ccccc1 [Example 86, 5-{5-[(1,2-benzoxazol-3-yl)methyl]-1,3,4-oxadiazol-2-yl}-2-butyl-6-hydroxy-3-[(1R)-1-phenylethyl]-3,4-dihydropyrimidin-4-one] |
| 100 to 300 | CCCCc1nc(O)c(-c2nnc(Cc3noc4ccccc34)o2)c(=O)n1[C@H]1CCCc2ccccc21 [Example 92, 5-{5-[(1,2-benzoxazol-3-yl)methyl]-1,3,4-oxadiazol-2-yl}-2-butyl-6-hydroxy-3-[(1S)-1,2,3,4-tetrahydronaphthalen-1-yl]-3,4-dihydropyrimidin-4-one] |
| 10 to 100 | CCCCc1nc(O)c(-c2nnc(Cc3noc4ccccc34)o2)c(=O)n1[C@H]1CCc2ccccc21 [Example 96, 5-{5-[(1,2-benzoxazol-3-yl)methyl]-1,3,4-oxadiazol-2-yl}-2-butyl-3-[(1S)-2,3-dihydro-1H-inden-1-yl]-6-hydroxy-3,4-dihydropyrimidin-4-one] |
| 10 to 100 | CCCCc1nc(O)c(-c2nnc(Cc3ccc(Cl)cc3)o2)c(=O)n1[C@H](C)c1ccccc1 [Example 83, 2-butyl-5-{5-[(4-chlorophenyl)methyl]-1,3,4-oxadiazol-2-yl}-6-hydroxy-3-[(1R)-1-phenylethyl]-3,4-dihydropyrimidin-4-one] |
| 10 to 100 | CCCCc1nc(O)c(-c2nnc(Cc3csc(C)n3)o2)c(=O)n1[C@H](C)c1ccccc1 [Example 82, 2-butyl-6-hydroxy-5-{5-[(2-methyl-1,3-thiazol-4-yl)methyl]-1,3,4-oxadiazol-2-yl}-3-[(1R)-1-phenylethyl]-3,4-dihydropyrimidin-4-one] |
| 10 to 100 | CCCCc1nc(O)c(-c2nnc(Cc3ccc(Cl)cn3)o2)c(=O)n1[C@@H]1CCc2ccccc21 [Example 122] |
